Values belong to the compound of their own block, whether it stands above or below them.
How the values were obtained:
[1] = tested on: bleomycin-induced scleroderma in C57BL/6 mice; assay: Bleomycin-induced scleroderma in mice; type: in vivo, mouse
Experimental: […] The skin was injected S.C. with 20(OH)D3 or vehicle daily within the same 1.5 cm^2 area. On day 22, all mice were euthanized and skin in the shaved area of the back was treated with a depilatory agent after which a biopsy of 1 cm circumference encompassing the S.C. injection site was taken to a depth to include the full thickness of the dermis. The skin samples from 5 randomly selected mice from each group were weighed and snap frozen in liquid nitrogen. Later, the skin samples were thawed and treated overnight with pepsin (0.1 mg/ml) of 0.5 M acetic acid at 4° C. with constant rocking to remove terminal non-helical telopeptides to release the collagen into solution. Total solubilized collagen was quantitative using a Sircol Collagen Assay kit using type I bovine collagen to obtain a standard curve. The collagen content of the skin samples was expressed as μg of collagen per mg tissue weight. Results for the groups were expressed as mean±SEM and analyzed by one way ANOVA with p values<0.05 considered to be statistically significant.

[2] = tested on: human radial growth phase amelanotic melanoma WM35 cells; assay: Viability of WM35 melanoma cells; type: cell-based; conditions: WM35, 24 h
Experimental: (§1) Cells were seeded in 96-well plate and incubated with 20-hydroxycholecalciferol in DMEM medium containing 5% FBS for 48 h (FIG. 25A) or 72 h (FIG. 25C) or for 24 h after a 12 h synchronization in serum free medium (FIG. 25D). […] was added for a final 18 h (FIGS. 25A, 25D) or 12 h (FIG. 25C) of incubation or cells were assessed with sulforhodamine assay (FIG. 25C). Data is shown as mean±SEM (n=5; FIG. 24C) or mean±SEM (n=6; FIGS. 24A, 24C, 24D) and was analyzed using GraphPrism 4.0.

[3] = tested on: human osteosarcoma cell line MG-63; assay: Proliferation of MG-63 osteosarcoma cells; type: cell-based
Experimental: as §1

NFκBI (IκBα) = assay: Western blot IκB-α in HaCaT and normal keratinocytes; type: cell-based, human; conditions: 100 nM, time dependant
Experimental: HaCaT keratinocytes were treated with 20,23-dihydroxycholecalciferol for indicated time: 0 h, 30 min, 1 h, 4 h, 16 h and 24 h, at the concentration of 10^−7 [M]. Cells were lysed and whole cell extract has been prepared. The equal amount of proteins calculates using Bradford method has been subjected to electrophoresis in SDS-PAGE 7-15% gel and transferred to a PVDF membrane (Millipore). The primary antibodies used were the rabbit polyclonal antibodies of anti+ IκB-α (Santa Cruz), 1:250 dilution, anti-p65 (Santa Cruz) 1:500 dilution and anti-β actin-peroxidase (Sigma) 1:1000 dilution. Secondary antibody used was anti rabbit-HRP (Santa Cruz) 1:7,000 dilution.

[4] = tested on: U937 promonocytic leukemia cells; assay: Monocytic differentiation (NBT), U937; type: cell-based, human; conditions: U937, 0.1 μM
Experimental: HL-60 human promyelocytic and U937 promonocytic leukemia cells were treated with the drugs at 0.1 μM or vehicle (negative control or 12-O-tetradecanoylphorbol-13-acetate (TPA) (positive control). Media were changed every 72 h and test substances added fresh every day. Differentiation toward monocytes-like morphology and NBT-reduction has been assessed after 5 and 7 days. Cells (2×106) were washed with PBS four times and resuspended in 200 μL of NBT solution (4 mg/mL) in water. After the addition of 200 ul of TPA solution (2 ug/ml) in PBS cells were incubated at 37° C. for 60 min in 24-well plates. Cell differentiation was assessed by intracellular blue formazan deposits. The NBT positive and negative cells were scored under light microscopy examination (40×) with a minimum of 200 cells scored.
For spectrophotometric analysis the cells were washed twice with buffer containing cold bovine serum albumin solution (17 mg/mL BSA, 137 mmol/L, NaCl, 5 mmol/L, KCl, 0.8 mmol/L, MgSO4, […], HEPES, pH7.4) to remove unreacted NBT, and the insoluble formazan deposits in the resulting pellet were solubilized in 1 mL of a mixture containing 90% DMSO, 0.1% SDS and 0.01 mmol/L NaOH by vigorous vortexing. The samples were centrifuged 5 min at 1500 g to remove the cellular debris, and then the absorbance of supernatants was measured at 715 nm. Data are expressed as change in A715/106 cells.

EC50 [3]: 570 nM
Structure (SMILES): C=C1CC[C@H](O)C/C1=C/C=C1\CCC[C@@]2(C)[C@H]1CC[C@@H]2[C@@](C)(O)CCCC(C)C [20(OH)D3, (5Z,7E)-9,10-secocholesta-5,7,10(19)-triene-3β,20-diol]
bleomycin-induced increase of total skin collagen ([1]; 3 μg/kg daily dose, 21 days): prevented
body weight less than the vehicle control group ([1]; bleomycin + 20(OH)D3, 21 days): 13.6%
concentration above which viability started declining [2]: greater than 1×10^−7 M

Structure (SMILES): C=C1CC[C@H](O)C/C1=C/C=C1\CCC[C@]2(C)[C@@H](C(C)(O)CC(O)CC(C)C)CC[C@@H]12 (stereo partly drawn) [20,23-dihydroxycholecalciferol, (5Z,7E)-9,10-secocholesta-5,7,10(19)-triene-3β,20,23-triol]
NFκBI (IκBα) protein levels (NFκBI (IκBα)): induced an increase in NFκBI (IκBα) protein levels

Structure (SMILES): C=C1CC[C@H](O)C/C1=C/C=C1\CCC[C@]2(C)[C@@H](C(C)=O)CC[C@@H]12 [pD3, (5Z,7E)-3β-hydroxy-9,10-secopregna-5,7,10(19)-trien-20-one]
monocytic differentiation (NBT staining) [4]: induce monocytic differention

— patent US20120258938A1, “Enzymatic Production or Chemical Synthesis and Uses for 5,7-Dienes and UVB Conversion Products Thereof” (priority 2008, published 2012)
